Assay results: article PMC10302582, “Unveiling the Potential of BenzylethyleneAryl–Urea Scaffolds for the Design of New Onco Immunomodulating Agents” (Pharmaceuticals, 2023)
Like-named read-outs stand apart in the source and are kept apart here.

What was measured:
VEGFR-2 = molecular target: T1, VEGFR-2 (Homo sapiens, UniProt P35968); assay: VEGFR-2 relative quantification by flow cytometry in HT-29 cells; assay type: cell-based; details: for total VEGFR-2 (%) expression: HT-29 cells, 24 h, relative to DMSO control = 100
T1 construct: assess the effect of our new ureas on these two proteins only on the HT-29 cancer cell line through the use of flow cytometry; endogenous in cells; host or cells: HT-29
Procedure: The cells were incubated for a period of time of one day with doses of each of the selected compounds at two different doses: 20 and 100 µM concentrations.
The effects of the compounds on the target in the cancer cell lines compounds were tested using 20 and 100 µM doses. For that, 10^5 cells per well were seeded on a 12-well plate for 24 h with the corresponding dose of the tested compound in a total volume of 500 μL of cell media. To determine the total PD-L1 and VEGFR-2, the cells were collected and fixed with 4% in a PBS of formaldehyde. After this, a treatment with 0.5% in PBS Triton^TM X-100 permeabilized the membranes.
To determine surface PD-L1 and VEGFR-2, the assay used was similar to the above but avoided the permeabilization step (Triton^TM X-100).

HMEC-1 endothelial cells = assay: Microvessel formation inhibition assay on Matrigel; assay type: cell-based, human; details: HMEC-1 on Matrigel
Procedure: The antiangiogenic action of the selected compounds, as well as the reference compounds, was evaluated by determining the effect on the formation of new microvessels formed by HMEC-1 endothelial cells on a Matrigel matrix.
We used IBIDI μ-slide angiogenesis plates (IBIDI, Martins ried, Germany). The wells were coated with 15 μL of Matrigel® (10 mg/mL, BD Biosciences, San Jose, CA, USA) at 4 °C and incubated at 37 °C for at least 30 min. Afterward, the HMEC-1 cells were seeded at 2 × 10^4 cells/well in 25 μL of medium and were left for 30 min at 37 °C while they attached. Then, the compounds were added in serial doses in 25 μL of the medium, and after several hours (maximum 24 h) of incubation at 37 °C, pictures for the wells were taken to evaluate the formation of microvessels.

[1] = system: HT-29 (colon adenocarcinoma); assay: MTT cell proliferation assay, HT-29; assay type: cell-based; details: Homo sapiens, read-out: IC50 HT-29
Procedure: After the supernatant was discarded, we solved the formazan crystal in 100 µL of DMSO. The absorbance was then registered at 550 nm using a plate lector. For all concentrations of any compound, cell viability was expressed as the percentage of the ratio between the mean absorbance of the treated cells and the mean absorbance of the untreated cells. Three to five experiments were performed to establish the IC50 values (i.e., concentration half inhibiting cell proliferation, we used GraphPad Prism 7 software).

CD11b = CD11b detection on membrane of co-cultured THP-1; assay type: cell-based, human; details: for % CD11b expression in membrane of THP-1: 1:5 HT-29/THP-1, 24 h, relative to non-treated co-cultured THP-1; for reduction of CD11b expression: THP-1 co-cultured with HT-29
Text: Reducing the expression of CD11b has become a promising target for immune modulation in anticancer therapies. For that reason, we decided to study the effect of our compounds on CD11b in THP-1 cells co-cultured with HT-29. We also determined the relative amount of CD80, a common surface marker for monocytes.
The results are related to non-treated THP-1 cells when they were co-cultured with HT-29.
The action of the compounds on CDs in co-cultured THP-1 immune cells with cancer cell line HT-29 was tested by treating them with the compounds for 24 h/48 h (see Section 4.2.5). Surface CD11b and CD80 was determined by collecting THP-1 with trypsin, fixing with formaldehyde and staining with FITC Mouse monoclonal Anti-Human CD80 (Sigma-Aldrich SAB4700142) and Alexa Fluor® 647 Rabbit monoclonal Anti-CD11b (Merck #MABF366, Rahway, NJ, USA).

T1 sequence (P35968 20-1356): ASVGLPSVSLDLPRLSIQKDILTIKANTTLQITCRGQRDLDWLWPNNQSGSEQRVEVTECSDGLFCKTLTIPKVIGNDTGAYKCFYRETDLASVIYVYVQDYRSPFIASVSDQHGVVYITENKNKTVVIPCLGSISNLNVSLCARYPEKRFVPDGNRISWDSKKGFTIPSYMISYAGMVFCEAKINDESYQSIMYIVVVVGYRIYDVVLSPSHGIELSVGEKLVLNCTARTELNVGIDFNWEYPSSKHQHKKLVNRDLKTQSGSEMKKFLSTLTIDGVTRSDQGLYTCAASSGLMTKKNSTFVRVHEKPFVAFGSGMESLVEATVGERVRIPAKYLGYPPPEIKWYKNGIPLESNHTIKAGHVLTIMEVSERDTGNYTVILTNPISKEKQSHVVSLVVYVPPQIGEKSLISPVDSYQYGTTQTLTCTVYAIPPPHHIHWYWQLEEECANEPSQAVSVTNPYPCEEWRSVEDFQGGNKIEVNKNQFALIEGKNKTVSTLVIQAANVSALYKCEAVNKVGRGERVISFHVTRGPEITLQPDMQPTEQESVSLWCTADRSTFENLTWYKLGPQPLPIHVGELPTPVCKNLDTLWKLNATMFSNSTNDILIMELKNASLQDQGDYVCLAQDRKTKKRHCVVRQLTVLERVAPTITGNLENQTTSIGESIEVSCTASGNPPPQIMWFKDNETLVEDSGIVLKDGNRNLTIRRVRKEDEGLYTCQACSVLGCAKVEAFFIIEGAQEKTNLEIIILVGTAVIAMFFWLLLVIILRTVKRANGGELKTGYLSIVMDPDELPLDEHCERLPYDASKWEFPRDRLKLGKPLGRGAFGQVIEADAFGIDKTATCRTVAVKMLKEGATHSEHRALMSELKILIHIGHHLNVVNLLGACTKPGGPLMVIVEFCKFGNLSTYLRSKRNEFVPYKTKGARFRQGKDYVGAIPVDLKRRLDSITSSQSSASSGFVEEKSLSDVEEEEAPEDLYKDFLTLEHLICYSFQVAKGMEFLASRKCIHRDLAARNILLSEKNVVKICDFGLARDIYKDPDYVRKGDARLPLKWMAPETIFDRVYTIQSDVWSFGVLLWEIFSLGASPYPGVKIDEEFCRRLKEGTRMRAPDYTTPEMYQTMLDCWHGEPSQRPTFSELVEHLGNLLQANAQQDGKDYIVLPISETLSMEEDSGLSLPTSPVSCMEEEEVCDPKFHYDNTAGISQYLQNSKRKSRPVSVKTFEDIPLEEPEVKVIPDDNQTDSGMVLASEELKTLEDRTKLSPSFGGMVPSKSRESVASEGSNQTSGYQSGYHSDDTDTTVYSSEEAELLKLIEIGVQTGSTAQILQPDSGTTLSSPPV

SMILES | total VEGFR-2 (%) expression (VEGFR-2; 20 μM) | total VEGFR-2 (%) expression (VEGFR-2; 100 μM) | Minimum Active Conc. inhibiting microtube formation (HMEC-1 endothelial cells) | IC50 ([1]; HT-29, MTT, 48 h treatment) | % CD11b expression in membrane of THP-1 (CD11b) | reduction of CD11b expression (CD11b) | inhibition rate of VEGFR-2 (VEGFR-2; HT-29, total VEGFR-2, dose not stated) | IC50 ([1]; HT-29, 48 h)
COc1ccc(CCCc2cccc(NC(=O)Nc3ccccc3OC)c2)cc1 [C.14] | 228 ± 66% | 32 ± 9% | >100 µM | > 100 µM | 66 ± 3% | about 35% | – | –
COc1ccc(CCCc2cccc(NC(=O)Nc3ccc(OC)cc3)c2)cc1 [C.12] | 30 ± 10% | 65 ± 45% | 20 µM | > 100 µM | 73 ± 4% | – | around 75% | –
COc1ccc(CCCc2cccc(NC(=O)Oc3ccccc3)c2)cc1 [C.1] | 51 ± 10% | 191 ± 87% | 5 µM | – | 79 ± 9% | – | – | > 100 µM
COc1ccc(CCCc2cccc(NC(=O)Nc3ccc(F)cc3)c2)cc1 [C.3] | 38 ± 7% | 40 ± 7% | 50 µM | > 100 µM | 67 ± 22% | about 35% | – | –
